Experimental data reported in publication PMC11722285, “Exploring the Potential of Malvidin and Echiodinin as Probable Antileishmanial Agents Through In Silico Analysis and In Vitro Efficacy” (Molecules, 2025).
Like-named read-outs stand apart in the source and are kept apart here.

What was measured:
Format in all cases: cell-based
[1] = tested on: L. amazonensis stationary promastigotes; experiment: In vitro antileishmanial activity, stationary promastigotes (MTT); settings: for IC50: 48 h, stationary promastigotes, mean ± SD, read-out: IC50 (µM) Stationary Promastigotes L. amazonensis
Description: (§1) L. amazonensis (IFLA/BR/1967/PH-8), L. braziliensis (MHOM/BR/1975/M2903), and L. infantum (MHOM/BR/1970/BH46) were used as parasites. Stationary promastigotes were grown at a 24 °C in complete Schneider’s medium (Sigma-Aldrich, St. Louis, MO, USA), which was composed of medium plus 20% (v/v) heat-inactivated fetal bovine serum (FBS; Sigma-Aldrich, USA) and 20 mM L-glutamine with a pH of 7.4 [139]. To obtain the axenic amastigotes, 10^9 stationary promastigotes were washed three times in sterile phosphate-buffered saline (PBS 1X and incubated in 5 mL FBS for 48 h (L. amazonensis and L. braziliensis) and 72 h (L. infantum), respectively, at 37 °C. Parasites were washed in cold PBS 1x, and their morphology was evaluated after staining using the Giemsa method in an optical microscope, as previously described.
(§2) AmpB (0 to 10.8 µM; Sigma-Aldrich, USA) was used as control. Cell viability was assessed through 3-(4.5-dimethylthiazol-2-yl)-2.5-diphenyl tetrazolium bromide (Sigma-Aldrich, USA) method. Optical density (OD) values were measured in a microplate spectrophotometer (Molecular Devices, Spectra Max Plus, San Jose, CA, USA) at 570 nm. IC50 values were calculated by sigmoidal regression of dose–response curves in Microsoft Excel software (version 10.0). Two-tailed Student’s t-tests (p < 0.05) were used to compare IC50 values between malvidin and echioidinin, assessing significant differences in inhibitory activity.

[2] = tested on: L. braziliensis stationary promastigotes; experiment: as above
Description: as §1, §2

[3] = tested on: L. infantum stationary promastigotes; experiment: as above
Description: as §1, §2

[4] = tested on: L. amazonensis axenic amastigotes; experiment: In vitro antileishmanial activity, axenic amastigotes (MTT); settings: for IC50: 48 h, axenic amastigotes, mean ± SD, read-out: IC50 (µM) Axenic amastigotes L. amazonensis
Description: as §1, §2

[5] = tested on: L. braziliensis axenic amastigotes; experiment: as above
Description: as §1, §2

[6] = tested on: L. infantum axenic amastigotes; experiment: as above
Description: as §1, §2

O+ human red blood cells = experiment: Hemolytic activity; settings: human, 1 h
Description: Cytotoxicity was evaluated ex vivo in murine macrophages and human red blood cells, for which concentrations inhibiting 50% of macrophages (CC50) and red blood cells (RBC50) were determined. Briefly, murine cells (5 × 10^5) or a 5% human red blood cells suspension were incubated in the presence of malvidin (0 to 301.84 µM) or echioidinin (0 to 356.76 µM) AmpB (0 to 10.82 µM) was used as control. Cells were incubated in RPMI 1640 medium for 48 h (murine macrophages) or 1 h (red blood cells) at 37 °C in 5% CO2. Macrophage viability was assessed using the MTT method. The red blood cell suspension was centrifuged at 1000× g for 10 min at 4 °C, after which the percentage of cell lysis was evaluated spectrophotometrically at 570 nm. The hemolysis was determined by replacing the natural products with an equal volume of phosphate-buffered saline with a pH of 7.4 (PBS—negative control) or distilled water (positive control). CC50 and RBC50 values were calculated by sigmoidal regression of dose–response curves in Microsoft Excel software (version 10.0). SI was calculated as the ratio between CC50 and IC50 values.

[7] = tested on: L. amazonensis-infected murine macrophages; experiment: Treatment of infected macrophages; settings: 48 h
Description: (§3) To evaluate the efficacy of malvidin or echioidinin for treating infected macrophages, murine cells (5 × 10^5) were plated on round glass coverslips in 24-well plates in RPMI 1640 medium supplemented with 20% (v/v) FBS and 20 mM L-glutamine at a pH of 7.4 and incubated for 24 h at 37 °C in 5% CO2. Stationary promastigotes were added to the wells at a ratio of 10 parasites per macrophage, and cultures were incubated further for 48 h at 37 °C for 5% CO2. Free parasites were removed by extensive washing with RPMI 1640 medium, and infected macrophages were treated with malvidin (30.18, 60.37, and 120.74 µM), echioidinin (35.18, 70.36, and 140.72 µM), or AmpB (2.70 and 5.41 µM) for 48 h at […] in 5% CO2. After fixation with 4% paraformaldehyde, cells were washed and stained with Giemsa, and the infection percentage, the number of amastigotes per infected macrophage, and the reduction in the infection percentage were determined by counting 200 cells in triplicate, using an optical microscope.

[8] = tested on: L. braziliensis-infected murine macrophages; experiment: Treatment of infected macrophages; settings: 48 h
Description: as §3

[9] = tested on: L. infantum-infected murine macrophages; experiment: Treatment of infected macrophages; settings: 48 h
Description: as §3

[10] = ratio between CC50 (macrophages) and IC50

C[C@@H]1[C@H](O)[C@@H](C)/C=C/C=C/C=C/C=C/C=C/C=C/C=C/[C@H](O[C@@H]2O[C@H](C)[C@@H](O)[C@H](N)[C@@H]2O)C[C@@H]2O[C@](O)(C[C@@H](O)C[C@@H](O)[C@H](O)CC[C@@H](O)C[C@@H](O)CC(=O)O[C@H]1C)C[C@H](O)[C@H]2C(=O)O [AmpB, amphotericin B, reference compound]
IC50 ([1]; Leishmania amazonensis): 0.06 ± 0.01 µM | Selectivity Index (SI) Stationary Promastigotes L. amazonensis [1, 10]: 12.60 | IC50 [1]: 0.08 ± 0.02 µM | IC50 ([2]; Leishmania braziliensis, stationary promastigotes, 48 h, mean ± SD, read-out: IC50 (µM) Stationary Promastigotes L. braziliensis): 0.09 ± 0.03 µM | Selectivity Index (SI) Stationary Promastigotes L. braziliensis [2, 10]: 11.00 | IC50 ([3]; Leishmania infantum, stationary promastigotes, 48 h, mean ± SD, read-out: IC50 (µM) Stationary Promastigotes L. infantum): 0.06 ± 0.01 µM | Selectivity Index (SI) Stationary Promastigotes L. infantum [3, 10]: 14.70 | IC50 ([4]; Leishmania amazonensis): 0.1 ± 0.03 µM | IC50 [4]: 0.09 ± 0.02 µM | Selectivity Index (SI) Axenic amastigotes L. amazonensis [4, 10]: 11.00 | IC50 ([5]; Leishmania braziliensis, axenic amastigotes, 48 h, mean ± SD, read-out: IC50 (µM) Axenic amastigotes L. braziliensis): 0.1 ± 0.03 µM | Selectivity Index (SI) Axenic amastigotes L. braziliensis [5, 10]: 9.80 | IC50 ([6]; Leishmania infantum, axenic amastigotes, 48 h, mean ± SD, read-out: IC50 (µM) Axenic amastigotes L. infantum): 0.08 ± 0.02 µM | Selectivity Index (SI) Axenic amastigotes L. infantum [6, 10]: 12.60 | RBC50 (O+ human red blood cells): 14.28 ± 1 µM | Infection After Treatment (%) ([7]; 2.71 µM): 34.30% | Infectiveness Reduction (%) ([7]; 2.71 µM): 62.84% | Number of Amastigotes per Macrophage ([7]; 2.71 µM): 2.60 | Infection After Treatment (%) ([7]; 5.41 µM): 24.20% | Infectiveness Reduction (%) ([7]; 5.41 µM): 73.78% | Number of Amastigotes per Macrophage ([7]; 5.41 µM): 2.80 | Infection After Treatment (%) ([8]; 2.71 µM): 24.40% | Infectiveness Reduction (%) ([8]; 2.71 µM): 64.48% | Number of Amastigotes per Macrophage ([8]; 2.71 µM): 2.60 | Infection After Treatment (%) ([8]; 5.41 µM): 16.50% | Infectiveness Reduction (%) ([8]; 5.41 µM): 75.98% | Number of Amastigotes per Macrophage ([8]; 5.41 µM): 2.40 | Infection After Treatment (%) ([9]; 2.71 µM): 28.70% | Infectiveness Reduction (%) ([9]; 2.71 µM): 61.48% | Number of Amastigotes per Macrophage ([9]; 2.71 µM): 3.00 | Infection After Treatment (%) ([9]; 5.41 µM): 19.80% | Infectiveness Reduction (%) ([9]; 5.41 µM): 73.42% | Number of Amastigotes per Macrophage ([9]; 5.41 µM): 2.50
